Measurements from patent US4387106A, “Method of treating atherosclerosis with di(aralkyl)ureas and di(aralkyl)thioureas” (American Cyanamid Company, priority 1982, dated 1983).

Experiments:
[1] = tested on: Cholesterol absorption; conditions: po, 336 h
Experimental: Inhibition of cholesterol absorption was determined by feeding male Sprague-dawley rats weighing 150-170 g. a 1% cholesterol:0.5% cholic acid diet for 2 weeks. The diet also contained compounds being tested at doses of between 0.01% and 0.1% of the diet. […] Feces were collected for each 24 hour period for the remaining 5 days during which the rats were maintained on the 1% cholesterol:0.5% cholic acid plus test compound diet. Fecal ^14 C-neutral sterols were extracted with petroleum ether from saponified feces by the method of Grundy, S. M. et. al., J. Lipid Res., 6, 397 (1965) and counted in a scintillation counter. Acidic sterols (bile acids) were extracted by acidifying the saponified feces and extracting in chloroform:methanol (2:1) and counting the chloroform phase in a scintillation counter. Total extraction of radioactivity (98-100%) from saponified feces is realized by this procedure.
The effect of test compounds on cholesterol absorption was determined by:
1. increase in excreted ^14 C-neutral sterol
2. decrease in excreted ^14 C-acidic sterol
3. decrease in ^14 C-cholesterol or ^14 C-cholesteryl ester in the liver.
4. decrease in ^14 C-cholesterol or ^14 C-cholesteryl ester in the serum.

[2] = target: T1, fatty acyl CoA:cholesterol acyl transferase (ACAT) (Rattus norvegicus, UniProt O70536); test: In vitro inhibition of fatty acyl CoA:cholesterol acyl transferase (ACAT), rat adrenal supernatant; format: biochemical; conditions: final concentration 5.2 μg./ml., pH 7.4, 37° C., oleoyl CoA (14C)
T1 construct: The supernatant, containing the microsomal fraction, served as the source of the cholesterol-esterifying enzyme; from tissue; host or cells: rat adrenals, homogenate, 1000 x g supernatant containing the microsomal fraction
T1 sequence (O70536 1-545): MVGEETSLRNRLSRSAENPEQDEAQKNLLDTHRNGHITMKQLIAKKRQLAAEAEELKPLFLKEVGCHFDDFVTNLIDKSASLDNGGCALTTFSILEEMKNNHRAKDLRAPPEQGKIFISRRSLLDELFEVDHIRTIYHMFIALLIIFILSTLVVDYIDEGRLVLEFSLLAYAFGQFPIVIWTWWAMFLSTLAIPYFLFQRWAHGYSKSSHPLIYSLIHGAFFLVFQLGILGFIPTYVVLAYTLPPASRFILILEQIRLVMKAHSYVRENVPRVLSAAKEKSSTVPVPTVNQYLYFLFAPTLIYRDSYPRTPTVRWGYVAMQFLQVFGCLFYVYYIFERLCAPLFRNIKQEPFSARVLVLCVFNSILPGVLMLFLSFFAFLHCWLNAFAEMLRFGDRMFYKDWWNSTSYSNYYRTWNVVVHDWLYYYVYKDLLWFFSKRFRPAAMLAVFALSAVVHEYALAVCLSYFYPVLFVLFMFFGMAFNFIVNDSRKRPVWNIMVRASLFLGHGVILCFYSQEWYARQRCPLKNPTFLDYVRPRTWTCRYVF
Experimental: The compounds were tested for their ability to inhibit ACAT according to the following procedure:
Rat adrenals were homogenized in 0.2 M monobasic potassium phosphate buffer, pH 7.4, and centrifuged at 1000 times gravity for 15 minutes at 5° C. The supernatant, containing the microsomal fraction, served as the source of the cholesterol-esterifying enzyme, fatty acyl CoA:cholesterol acyl transferase (ACAT). A mixture comprising 50 parts of adrenal supernatant, 10 parts of albumin (BSA) (50 mg./ml.), 3 parts of test compound (final concentration 5.2 μg./ml.) and 500 parts of buffer was preincubated at 37° C. for 10 minutes. After treatment with 20 parts of oleoyl CoA (^14 C--0.4 μCi) the mixture was incubated at 37° C. for 10 minutes. A control mixture, omitting the test compound, was prepared and treated in the same manner. The lipids from the incubation mixture were extracted into an organic solvent and separated by thin-layer chromatography. The cholesteryl ester fraction was counted in a scintillation counter.

[3] = tested on: Cholesterol absorption; conditions: po, 0.03 % of diet, 336 h
Experimental: Compounds were tested in vitro for their ability to inhibit the enzyme fatty acyl CoA:cholesterol acyl transferase (ACAT) and in vivo for serum hypolipidemic activity as measured by their ability to inhibit lipid absorption in rats.
Inhibition of Cholesterol absorption was determined by feeding male Sprague-Dawley rats, weighing 150-170 g., A 1% cholesterol:0.5% cholic acid diet for 2 weeks. The diet also contained compounds being tested at a dose of 0.03% of the diet. Control rats were fed the same diet without any compound. At the end of the test, the rats were sacrificed by decapitation. Blood is collected, centrifuged at 1.5 kg times gravity for 10 minutes at 4° C., and the serum is then analyzed for cholesterol and triglycerides enzymatically by the method of Trinder, P., Analyst, 77, 321 (1952) on a Centrifichem 400 Analyzer. Livers are removed, a 0.4 g sample is taken from the center of the large lobe, and the sample is subjected to saponification using 25% saturated potassium hydroxide in ethanol. The resulting neutral sterols are extracted with petroleum ether and extract analyzed for cholesterol. The effectiveness of the compound in inhibiting cholesterol absorption is measured by the lowering of either serum cholesterol or liver cholesterol relative the values for control rats.

Cc1cccc(NC(=O)N(Cc2ccccc2)Cc2ccccc2)c1C [1,1-Dibenzyl-3-(2,3-dimethylphenyl)urea]
Result (inhibition of cholesterol absorption, 14C-sterol excretion) [1]: Active
inhibition at 5.2 µg/mL [2]: 88.1%
Result (inhibition of cholesterol absorption: lowering of serum or liver cholesterol relative to control) [3]: Active

COc1ccc(C)cc1NC(=O)N(Cc1ccccc1)Cc1ccccc1 [1,1-Dibenzyl-3-(2-methoxy-5-methylphenyl)urea]
Result (inhibition of cholesterol absorption, 14C-sterol excretion) [1]: Active
inhibition at 5.2 µg/mL [2]: 87.8%
Result (inhibition of cholesterol absorption: lowering of serum or liver cholesterol relative to control) [3]: Active

Cc1cc(C)c(NC(=O)N(Cc2ccccc2)Cc2ccccc2)c(C)c1 [1,1-Dibenzyl-3-(2,4,6-trimethylphenyl)urea]
Result (inhibition of cholesterol absorption, 14C-sterol excretion) [1]: Active
inhibition at 5.2 µg/mL [2]: 36.9%
Result (inhibition of cholesterol absorption: lowering of serum or liver cholesterol relative to control) [3]: Active

Cc1ccc(Cl)cc1NC(=O)N(Cc1ccccc1)Cc1ccccc1 [1,1-Dibenzyl-3-(5-chloro-2-methylphenyl)urea]
Result (inhibition of cholesterol absorption, 14C-sterol excretion) [1]: Active
inhibition at 5.2 µg/mL [2]: 71.3%
Result (inhibition of cholesterol absorption: lowering of serum or liver cholesterol relative to control) [3]: Active

Cc1ccc(NC(=O)N(Cc2ccccc2)Cc2ccccc2)cc1C [1,1-Dibenzyl-3-(3,4-dimethylphenyl)urea]
Result (inhibition of cholesterol absorption, 14C-sterol excretion) [1]: Active
inhibition at 5.2 µg/mL [2]: 71.8%
Result (inhibition of cholesterol absorption: lowering of serum or liver cholesterol relative to control) [3]: Active

O=C(Nc1ccc(Cl)cc1C(F)(F)F)N(Cc1ccccc1)Cc1ccccc1 [1,1-Dibenzyl-3-(4-chloro-2-trifluoromethylphenyl)urea]
Result (inhibition of cholesterol absorption, 14C-sterol excretion) [1]: Active
inhibition at 5.2 µg/mL [2]: 81.8%
Result (inhibition of cholesterol absorption: lowering of serum or liver cholesterol relative to control) [3]: Active

CCCCc1ccc(NC(=O)N(Cc2ccccc2)Cc2ccccc2)cc1 [1,1-Dibenzyl-3-(4-n-butylphenyl)urea]
inhibition at 5.2 µg/mL [2]: 91.3%
Result (inhibition of cholesterol absorption: lowering of serum or liver cholesterol relative to control) [3]: Active

Cc1ccc(NC(=O)N(Cc2ccccc2)Cc2ccccc2)c(C)c1 [1,1-Dibenzyl-3-(2,4-dimethylphenyl)urea]
Result (inhibition of cholesterol absorption, 14C-sterol excretion) [1]: Active
inhibition at 5.2 µg/mL [2]: 89.9%
Result (inhibition of cholesterol absorption: lowering of serum or liver cholesterol relative to control) [3]: Active

Cc1cc(C)c(NC(=O)N(Cc2ccccc2)Cc2ccccc2)cc1C [1,1-Dibenzyl-3-(2,4,5-trimethylphenyl)urea]
inhibition at 5.2 µg/mL [2]: 69.1%
Result (inhibition of cholesterol absorption: lowering of serum or liver cholesterol relative to control) [3]: Active

Cc1ccc(NC(=O)N(Cc2ccccc2)Cc2ccccc2)cc1Cl [1,1-Dibenzyl-3-(3-chloro-4-methylphenyl)urea]
Result (inhibition of cholesterol absorption, 14C-sterol excretion) [1]: Active
inhibition at 5.2 µg/mL [2]: 94%
Result (inhibition of cholesterol absorption: lowering of serum or liver cholesterol relative to control) [3]: Active

O=C(Nc1ccc(Oc2ccccc2)cc1)N(Cc1ccccc1)Cc1ccccc1 [1,1-Dibenzyl-3-(4-phenoxyphenyl)urea]
inhibition at 5.2 µg/mL [2]: 94.3%
Result (inhibition of cholesterol absorption: lowering of serum or liver cholesterol relative to control) [3]: Active

Cc1cc(Cl)ccc1NC(=O)N(Cc1ccccc1)Cc1ccccc1 [1,1-Dibenzyl-3-(4-chloro-2-methylphenyl)urea]
Result (inhibition of cholesterol absorption, 14C-sterol excretion) [1]: Active
inhibition at 5.2 µg/mL [2]: 62.7%
Result (inhibition of cholesterol absorption: lowering of serum or liver cholesterol relative to control) [3]: Active
